Data: ChEMBL document CHEMBL1201862, “PubChem BioAssay data set” (2004)
Calls of active or inactive are those of the source.

Legend:
Format in all cases: functional
[1] = target: T1, Serine/threonine-protein kinase D3 (Homo sapiens, UniProt O94806);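 further: determined within a kinase panel screen, with PRKCN as the panel member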
T1 sequence (O94806 whole entry): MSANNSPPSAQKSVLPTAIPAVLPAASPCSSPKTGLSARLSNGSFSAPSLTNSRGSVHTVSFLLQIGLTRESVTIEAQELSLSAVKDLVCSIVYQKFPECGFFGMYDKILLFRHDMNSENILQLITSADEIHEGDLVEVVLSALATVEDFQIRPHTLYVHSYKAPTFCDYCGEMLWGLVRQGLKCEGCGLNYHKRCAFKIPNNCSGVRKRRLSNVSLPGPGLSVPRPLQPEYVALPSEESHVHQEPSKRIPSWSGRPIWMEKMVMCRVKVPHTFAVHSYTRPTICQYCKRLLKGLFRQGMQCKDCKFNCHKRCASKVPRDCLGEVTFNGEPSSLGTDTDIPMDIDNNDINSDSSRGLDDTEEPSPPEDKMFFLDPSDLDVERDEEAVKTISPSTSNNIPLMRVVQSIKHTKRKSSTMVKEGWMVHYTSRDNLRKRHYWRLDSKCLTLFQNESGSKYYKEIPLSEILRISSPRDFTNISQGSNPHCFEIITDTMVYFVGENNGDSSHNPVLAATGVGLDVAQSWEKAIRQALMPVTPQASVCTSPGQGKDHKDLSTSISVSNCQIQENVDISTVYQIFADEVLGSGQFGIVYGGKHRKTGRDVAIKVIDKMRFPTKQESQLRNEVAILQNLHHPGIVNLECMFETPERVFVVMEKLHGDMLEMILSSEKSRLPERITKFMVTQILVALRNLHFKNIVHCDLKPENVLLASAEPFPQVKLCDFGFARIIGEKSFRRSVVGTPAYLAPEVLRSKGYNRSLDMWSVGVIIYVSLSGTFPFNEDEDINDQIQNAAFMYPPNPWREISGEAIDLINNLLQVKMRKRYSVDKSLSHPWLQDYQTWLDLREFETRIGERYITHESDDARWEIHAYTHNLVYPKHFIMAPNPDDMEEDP

Activin receptor type-1 = target: T2, Activin receptor type-1 (Homo sapiens, UniProt Q04771); assay: Navigating the Kinome. Panel member name: ACVR1
T2 sequence (Q04771 whole entry): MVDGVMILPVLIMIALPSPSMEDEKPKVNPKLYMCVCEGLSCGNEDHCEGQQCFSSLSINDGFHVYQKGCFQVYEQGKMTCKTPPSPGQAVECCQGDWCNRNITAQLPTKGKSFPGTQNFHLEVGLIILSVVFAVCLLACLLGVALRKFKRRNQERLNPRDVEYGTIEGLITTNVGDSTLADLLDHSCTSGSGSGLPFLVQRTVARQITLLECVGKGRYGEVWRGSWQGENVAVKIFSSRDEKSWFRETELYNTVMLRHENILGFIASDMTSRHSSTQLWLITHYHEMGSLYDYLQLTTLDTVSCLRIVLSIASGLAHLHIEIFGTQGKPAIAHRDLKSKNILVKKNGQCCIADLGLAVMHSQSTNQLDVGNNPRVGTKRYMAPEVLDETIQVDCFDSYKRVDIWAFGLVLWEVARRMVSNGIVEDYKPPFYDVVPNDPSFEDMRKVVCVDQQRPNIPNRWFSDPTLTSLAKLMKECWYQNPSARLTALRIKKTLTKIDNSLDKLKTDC

[2] = target: T3, Mitogen-activated protein kinase kinase kinase kinase 2 (Homo sapiens, UniProt Q12851);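 further: measured as one member of a kinome-wide kinase panel, with MAP4K2 as the panel entry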
T3 sequence (Q12851 whole entry): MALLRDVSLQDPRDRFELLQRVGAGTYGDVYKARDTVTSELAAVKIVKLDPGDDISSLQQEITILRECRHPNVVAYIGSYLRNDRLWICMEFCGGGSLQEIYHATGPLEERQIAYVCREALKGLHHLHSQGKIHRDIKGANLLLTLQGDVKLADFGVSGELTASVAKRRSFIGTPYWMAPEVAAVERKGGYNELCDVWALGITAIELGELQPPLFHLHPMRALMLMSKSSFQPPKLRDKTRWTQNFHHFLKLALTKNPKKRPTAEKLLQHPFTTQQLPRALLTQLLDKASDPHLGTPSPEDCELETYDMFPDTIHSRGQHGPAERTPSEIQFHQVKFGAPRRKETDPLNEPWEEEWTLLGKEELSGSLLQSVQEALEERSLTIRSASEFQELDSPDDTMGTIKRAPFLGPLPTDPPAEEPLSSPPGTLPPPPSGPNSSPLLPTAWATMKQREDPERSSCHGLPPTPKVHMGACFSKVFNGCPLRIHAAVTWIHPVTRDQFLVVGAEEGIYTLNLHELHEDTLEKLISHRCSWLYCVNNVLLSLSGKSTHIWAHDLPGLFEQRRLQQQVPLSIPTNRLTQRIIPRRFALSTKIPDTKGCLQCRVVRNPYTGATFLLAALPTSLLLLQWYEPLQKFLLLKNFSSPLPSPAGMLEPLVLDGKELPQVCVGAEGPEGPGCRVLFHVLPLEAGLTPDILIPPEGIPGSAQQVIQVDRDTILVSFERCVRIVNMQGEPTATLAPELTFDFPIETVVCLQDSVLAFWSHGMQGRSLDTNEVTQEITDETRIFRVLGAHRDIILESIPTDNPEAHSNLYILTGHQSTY

Activated CDC42 kinase 1 = Activated CDC42 kinase 1 (Homo sapiens, UniProt Q07912); assay: Navigating the Kinome. Panel member name: ACK1
Sequence of Activated CDC42 kinase 1 (Q07912 whole entry): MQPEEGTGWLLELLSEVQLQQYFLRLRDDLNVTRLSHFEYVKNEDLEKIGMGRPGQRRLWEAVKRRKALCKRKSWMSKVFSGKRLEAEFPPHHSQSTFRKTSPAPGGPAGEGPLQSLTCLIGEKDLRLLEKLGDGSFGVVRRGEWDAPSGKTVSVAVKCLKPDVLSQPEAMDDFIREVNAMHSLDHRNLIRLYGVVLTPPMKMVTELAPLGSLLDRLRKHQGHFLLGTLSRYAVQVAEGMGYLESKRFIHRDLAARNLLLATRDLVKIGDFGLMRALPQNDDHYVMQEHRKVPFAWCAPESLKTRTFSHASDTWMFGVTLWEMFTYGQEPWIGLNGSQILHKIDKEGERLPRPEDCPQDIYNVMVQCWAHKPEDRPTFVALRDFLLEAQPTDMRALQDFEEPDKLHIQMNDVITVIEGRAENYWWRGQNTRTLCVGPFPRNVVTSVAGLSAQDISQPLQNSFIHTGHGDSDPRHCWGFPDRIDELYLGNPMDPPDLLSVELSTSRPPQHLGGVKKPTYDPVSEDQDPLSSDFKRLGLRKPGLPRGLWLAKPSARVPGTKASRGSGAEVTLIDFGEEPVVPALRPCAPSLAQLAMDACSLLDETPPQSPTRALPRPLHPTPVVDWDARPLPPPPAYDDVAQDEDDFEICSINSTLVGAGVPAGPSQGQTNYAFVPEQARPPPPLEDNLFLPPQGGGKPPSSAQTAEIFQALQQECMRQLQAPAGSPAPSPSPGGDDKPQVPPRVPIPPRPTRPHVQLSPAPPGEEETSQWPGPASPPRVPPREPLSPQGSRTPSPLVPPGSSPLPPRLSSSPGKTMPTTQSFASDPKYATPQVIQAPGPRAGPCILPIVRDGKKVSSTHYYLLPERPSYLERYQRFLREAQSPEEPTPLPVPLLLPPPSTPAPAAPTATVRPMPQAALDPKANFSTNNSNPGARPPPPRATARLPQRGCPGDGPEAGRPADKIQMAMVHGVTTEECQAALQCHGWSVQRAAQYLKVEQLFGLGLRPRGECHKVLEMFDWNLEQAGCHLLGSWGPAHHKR

[3] = target: T4, cAMP-dependent protein kinase catalytic subunit PRKX (Homo sapiens, UniProt P51817)
T4 sequence (P51817 whole entry): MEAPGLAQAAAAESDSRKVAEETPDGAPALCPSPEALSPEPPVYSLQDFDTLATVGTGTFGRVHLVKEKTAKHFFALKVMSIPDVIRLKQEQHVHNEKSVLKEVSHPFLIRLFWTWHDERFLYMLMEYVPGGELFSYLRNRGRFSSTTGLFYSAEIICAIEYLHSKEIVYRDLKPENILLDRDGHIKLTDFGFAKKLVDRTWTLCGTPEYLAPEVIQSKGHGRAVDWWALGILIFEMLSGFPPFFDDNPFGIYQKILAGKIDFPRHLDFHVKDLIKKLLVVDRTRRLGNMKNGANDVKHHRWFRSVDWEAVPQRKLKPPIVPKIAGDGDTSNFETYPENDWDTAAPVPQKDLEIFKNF

[4] = target: Tyrosine-protein kinase BTK (Homo sapiens, UniProt Q06187)
Sequence of Tyrosine-protein kinase BTK (Q06187 whole entry): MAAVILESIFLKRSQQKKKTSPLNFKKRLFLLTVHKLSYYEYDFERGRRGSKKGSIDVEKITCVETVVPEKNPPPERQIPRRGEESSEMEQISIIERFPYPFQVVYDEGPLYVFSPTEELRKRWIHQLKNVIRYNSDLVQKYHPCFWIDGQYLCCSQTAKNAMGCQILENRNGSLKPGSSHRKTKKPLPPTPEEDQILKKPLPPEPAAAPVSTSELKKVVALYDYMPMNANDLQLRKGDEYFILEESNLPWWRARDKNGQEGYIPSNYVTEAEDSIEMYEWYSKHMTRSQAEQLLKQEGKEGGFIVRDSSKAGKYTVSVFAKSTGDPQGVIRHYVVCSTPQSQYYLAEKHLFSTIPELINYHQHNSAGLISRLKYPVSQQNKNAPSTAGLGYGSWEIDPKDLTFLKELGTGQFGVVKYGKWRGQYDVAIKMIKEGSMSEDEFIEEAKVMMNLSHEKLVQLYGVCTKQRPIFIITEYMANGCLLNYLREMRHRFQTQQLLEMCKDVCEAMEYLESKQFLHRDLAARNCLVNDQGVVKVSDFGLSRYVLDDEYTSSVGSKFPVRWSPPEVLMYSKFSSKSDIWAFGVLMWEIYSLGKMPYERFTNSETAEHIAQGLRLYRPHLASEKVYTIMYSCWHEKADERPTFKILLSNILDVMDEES

[5] = target: Insulin-like growth factor 1 receptor (Homo sapiens, UniProt P08069); assay: Navigating the Kinome. Panel member name: IGF1R
Sequence of Insulin-like growth factor 1 receptor (P08069 31-736 limits assumed): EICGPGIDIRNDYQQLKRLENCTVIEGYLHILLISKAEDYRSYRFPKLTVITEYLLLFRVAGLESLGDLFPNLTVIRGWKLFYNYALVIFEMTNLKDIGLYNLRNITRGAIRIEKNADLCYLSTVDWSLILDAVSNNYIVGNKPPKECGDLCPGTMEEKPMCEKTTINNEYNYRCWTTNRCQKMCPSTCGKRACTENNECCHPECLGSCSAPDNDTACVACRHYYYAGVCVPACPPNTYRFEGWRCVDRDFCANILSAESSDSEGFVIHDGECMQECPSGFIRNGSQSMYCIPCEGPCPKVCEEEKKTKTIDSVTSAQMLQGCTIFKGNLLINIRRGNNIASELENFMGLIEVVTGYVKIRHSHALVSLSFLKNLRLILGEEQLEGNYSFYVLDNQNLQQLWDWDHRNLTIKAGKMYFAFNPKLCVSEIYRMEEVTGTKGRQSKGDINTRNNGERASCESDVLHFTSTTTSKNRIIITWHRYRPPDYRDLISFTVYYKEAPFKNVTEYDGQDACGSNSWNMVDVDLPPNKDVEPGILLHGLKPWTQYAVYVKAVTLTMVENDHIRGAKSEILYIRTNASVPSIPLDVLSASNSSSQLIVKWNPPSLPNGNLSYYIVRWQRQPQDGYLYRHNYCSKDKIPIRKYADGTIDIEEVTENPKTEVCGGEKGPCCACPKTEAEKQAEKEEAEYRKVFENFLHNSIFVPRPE
Sequence of Insulin-like growth factor 1 receptor (P08069 741-1367 limits assumed): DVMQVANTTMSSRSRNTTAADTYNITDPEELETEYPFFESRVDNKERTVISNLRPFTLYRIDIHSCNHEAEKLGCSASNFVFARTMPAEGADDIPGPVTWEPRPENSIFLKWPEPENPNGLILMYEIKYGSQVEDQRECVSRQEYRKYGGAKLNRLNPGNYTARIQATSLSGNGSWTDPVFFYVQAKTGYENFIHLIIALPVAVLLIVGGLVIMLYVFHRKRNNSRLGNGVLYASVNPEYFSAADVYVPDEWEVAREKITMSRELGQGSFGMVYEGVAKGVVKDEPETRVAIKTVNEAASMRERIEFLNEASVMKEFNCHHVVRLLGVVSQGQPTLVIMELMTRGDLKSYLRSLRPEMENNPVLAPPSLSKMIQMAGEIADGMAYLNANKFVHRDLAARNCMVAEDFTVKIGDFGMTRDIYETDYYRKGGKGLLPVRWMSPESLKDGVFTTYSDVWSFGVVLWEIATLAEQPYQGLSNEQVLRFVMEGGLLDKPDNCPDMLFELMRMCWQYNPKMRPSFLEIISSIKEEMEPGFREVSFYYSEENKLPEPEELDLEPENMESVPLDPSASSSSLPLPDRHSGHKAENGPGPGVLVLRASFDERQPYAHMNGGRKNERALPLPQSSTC

| SMILES | Ki [1] | Ki (Activin receptor type-1) | Ki [2] | Ki (Activated CDC42 kinase 1) | Ki [3] | Ki [4] | Ki [5] |
| --- | --- | --- | --- | --- | --- | --- | --- |
| O=c1[nH]c2cc(Br)cnc2[nH]1 | 20 µM (active) | 25.1 µM (active) | 12.6 µM (active) | 50.1 µM (active) | 12.6 µM (active) |  |  |
| O=C(Nc1cccc(C(F)(F)F)n1)Nc1ccnc2cc(OC(F)F)ccc12 | > 3.98 µM (inactive) |  | > 2.51 µM (inactive) | > 3.98 µM (inactive) | > 3.16 µM (inactive) | > 6.31 µM (inactive) | > 2.51 µM (inactive) |
| O=C(Nc1cccc(C(F)(F)F)n1)Nc1ccnc2cc(Cl)ccc12 | > 3.98 µM (inactive) | 1 µM (active) | > 2.51 µM (inactive) | > 3.98 µM (inactive) | > 3.16 µM (inactive) | > 6.31 µM (inactive) | > 2.51 µM (inactive) |
| CCC1CC(NS(=O)(=O)C2CC2)CC1c1ncc2cnc3[nH]ccc3n12 (stereo not given) | > 3.98 µM (inactive) | > 3.98 µM (inactive) | > 2.51 µM (inactive) | 1.58 µM (active) | > 1.26 µM (inactive) | > 6.31 µM (inactive) | > 2.51 µM (inactive) |
